Key:
Type in all cases: in vivo
Pharbitis purpureum = assay: Greenhouse trial: herbicidal efficacy, Pharbitis purpureum; conditions: Table 7; post-emergence, 1-leaf stage, scoring 14 days after treatment; g of ai/ha: A1.1 100; B1.1 5; C12 50
Experimental: (§1) The trials were carried out under greenhouse conditions (test pots, diameter 8 cm, spray application using 300 l of water/hectare, 2 repetitions, 6 to 8 plants per pot).
(§2) Application was by post-emergence treatment; the species of the harmful plants and their stage of growth at the time of treatment are indicated in the individual results tables. The application rates of the herbicidally active compounds used on their own or in combinations are likewise listed in the individual results tables.
(§3) Scoring was by visual comparison of the treated with the untreated control pots (0-100% scale, 14 d after the application).
(§4) 4.2 Abbreviations used in Tables 4 to 8 application rate g/ai=application rate in grams of active compound per hectare • ai=active ingredient (of an active compound content of 100%) • GA=glufosinate-ammonium • GA-tolerant=corn which is tolerant to GA (GMO: LL corn) • E^C=expected value according to Colby, (E^C=A+B−A×B/100)= • =for ternary combinations: (A+B)+C−(A+B)×C/100 • Δ=difference (%) between observed value -%- vs. expected value (%) (observed value minus expected value) • examination: —observed values for (A), (B) and (A)+(B) in % • scoring: —observed value (%) greater>than E^C/E^A: ->synergism (+A) • —observed value (%) equal to =E^C/E^A->additive effect (+−Δ) • —observed value (%) smaller<than E^A/E^C->antagonism (−Δ)

corn (GA-tolerant) = assay: Greenhouse trial: crop plant compatibility
Experimental: as §1, §3

Setaria viridis = assay: Greenhouse trial: herbicidal efficacy, Setaria viridis; conditions: Table 6; post-emergence, 1-3-leaf stage, scoring 14 days after treatment; g of ai/ha: A1.1 100; B1.1 5; C3 5; C11 25
Experimental: as §1, §2, §3, §4

Setaria faberii = assay: Greenhouse trial: herbicidal efficacy, Setaria faberii; conditions: Table 5; post-emergence, 1-3-leaf stage, scoring 14 days after treatment; g of ai/ha: A1.1 100; B1.1 5; C7 15; C13 2.5; C9 12.5 alone, 2.5 in combination
Experimental: as §1, §2, §3, §4

Eleusine indica = assay: Greenhouse trial: herbicidal efficacy, Eleusine indica; conditions: Table 8; post-emergence, 1-2-leaf stage, scoring 14 days after treatment; g of ai/ha: A1.1 100; B1.1 5; C8 0.5; isoxadifen 100; cyprosulfamide 100; C′ = isoxadifen in r19, cyprosulfamide in r23
Experimental: as §1, §2, §3, §4

[1] = Table 4, post-emergence, 1-2-leaf stage, scoring 14 days after treatment, g of ai/ha: A1.1 100, B1.1 2.5 alone, 5 in combinations, C1 2.5, C2 1.25, C10 250, C4 50, C5 1, C6 2
[2] = Table 5, post-emergence, 1-3-leaf stage, scoring 14 days after treatment, g of ai/ha: A1.1 100, B1.1 5, C7 15, C13 2.5, C9 12.5 alone, 2.5 in combination
[3] = Table 8, post-emergence, 1-2-leaf stage, scoring 14 days after treatment, g of ai/ha: A1.1 100, B1.1 5, C8 0.5, isoxadifen 100, cyprosulfamide 100, C′ = isoxadifen in r19, cyprosulfamide in r23

## CCOCN(C(=O)CCl)c1c(C)cccc1CC [(C12) acetochlor, acetochlor]
Pharbitis purpureum
  Herbicidal efficacy % Pharbitis purpureum: 10%
Corn (GA-tolerant); in vivo
  Damage to crop plants (%) corn (GA-tolerant) (≦15-20% acceptable): 0%

## CCNc1nc(Cl)nc(NC(C)C)n1 [(C10) atrazin, atrazine]
Corn (GA-tolerant); [1]
  Damage to crop plants (%) corn (GA-tolerant) (≦15-20% acceptable): 0%

## C#CCN1C(=O)COc2cc(F)c(N3C(=O)C4=C(CCCC4)C3=O)cc21 [(C5) flumioxazin, flumioxazin]
Corn (GA-tolerant); [1]
  Damage to crop plants (%) corn (GA-tolerant) (≦15-20% acceptable): 15%

## CP(=O)(O)CCC(N)C(=O)O (centres unmarked) [(A1.1) GA, glufosinate-ammonium]
Setaria viridis
  Herbicidal efficacy % Setaria viridis: 5%
Pharbitis purpureum
  Herbicidal efficacy % Pharbitis purpureum: 45%
Corn (GA-tolerant); [1]
  Damage to crop plants (%) corn (GA-tolerant) (≦15-20% acceptable): 0%
Corn (GA-tolerant); [2]
  Damage to crop plants (%) corn (GA-tolerant) (≦15-20% acceptable): 0%
Corn (GA-tolerant); Table 6, post-emergence, 1-3-leaf stage, scoring 14 days after treatment, g of ai/ha: A1.1 100, B1.1 5, C3 5, C11 25
  Damage to crop plants (%) corn (GA-tolerant) (≦15-20% acceptable): 0%
Corn (GA-tolerant); Table 7, post-emergence, 1-leaf stage, scoring 14 days after treatment, g of ai/ha: A1.1 100, B1.1 5, C12 50
  Damage to crop plants (%) corn (GA-tolerant) (≦15-20% acceptable): 0%
Corn (GA-tolerant); [3]
  Damage to crop plants (%) corn (GA-tolerant) (≦15-20% acceptable): 0%
Setaria faberii
  Herbicidal efficacy % Setaria faberii: 10%

## COC(=O)c1csc(C)c1S(=O)(=O)NC(=O)n1nc(OC)n(C)c1=O [(C8) thiencarbazone-me, thiencarbazone-methyl]
Eleusine indica
  Herbicidal efficacy % Eleusine indica: 10%
Corn (GA-tolerant); [3]
  Damage to crop plants (%) corn (GA-tolerant) (≦15-20% acceptable): 0%

## CS(=O)(=O)c1ccc(C(=O)C2C(=O)CCCC2=O)c(Cl)c1COCC(F)(F)F [(C9) tembotrione, tembotrione]
Setaria faberii
  Herbicidal efficacy % Setaria faberii: 10%

## CC(C)N(C(=O)COc1nnc(C(F)(F)F)s1)c1ccc(F)cc1 [(C11) flufenacet, flufenacet]
Setaria viridis
  Herbicidal efficacy % Setaria viridis: 0%
Corn (GA-tolerant); in vivo
  Damage to crop plants (%) corn (GA-tolerant) (≦15-20% acceptable): 0%

## COc1ccccc1C(=O)NS(=O)(=O)c1ccc(C(=O)NC2CC2)cc1 [(C15) cyprosulfamide, cyprosulfamide]
Eleusine indica
  Herbicidal efficacy % Eleusine indica: 0%
Corn (GA-tolerant); [3]
  Damage to crop plants (%) corn (GA-tolerant) (≦15-20% acceptable): 0%

## Cc1c(C(=O)c2cnn(C)c2O)ccc(S(C)(=O)=O)c1C1=NOCC1 [(C13) topramezone, topramezone]
Corn (GA-tolerant); [2]
  Damage to crop plants (%) corn (GA-tolerant) (≦15-20% acceptable): 0%
Setaria faberii
  Herbicidal efficacy % Setaria faberii: 10%

## CS(=O)(=O)c1cc(C(F)(F)F)ccc1C(=O)c1cnoc1C1CC1 [(C3) isoxaflutole, isoxaflutole]
Setaria viridis
  Herbicidal efficacy % Setaria viridis: 0%
Corn (GA-tolerant); in vivo
  Damage to crop plants (%) corn (GA-tolerant) (≦15-20% acceptable): 15%

## N#Cc1cc(Br)c(O)c(Br)c1 [(C4) bromoxynil, bromoxynil]
Corn (GA-tolerant); [1]
  Damage to crop plants (%) corn (GA-tolerant) (≦15-20% acceptable): 0%

## COC(=O)c1nc(-c2ccc(Cl)c(OC)c2F)cc(N)c1Cl [(B1.1), methyl 4-amino-3-chloro-6-(4-chloro-2-fluoro-3-methoxyphenyl)pyridine-2-carboxylate]
Setaria viridis
  Herbicidal efficacy % Setaria viridis: 90%
Pharbitis purpureum
  Herbicidal efficacy % Pharbitis purpureum: 45%
Corn (GA-tolerant); in vivo
  Damage to crop plants (%) corn (GA-tolerant) (≦15-20% acceptable): 0%
Setaria faberii
  Herbicidal efficacy % Setaria faberii: 96%

## CS(=O)(=O)c1ccc(C(=O)C2C(=O)CCCC2=O)c([N+](=O)[O-])c1 [(C7) mesotrione, mesotrione]
Corn (GA-tolerant); [2]
  Damage to crop plants (%) corn (GA-tolerant) (≦15-20% acceptable): 0%
Setaria faberii
  Herbicidal efficacy % Setaria faberii: 0%

## O=C(O)C1=NOC(c2ccccc2)(c2ccccc2)C1 [(C14) isoxadifen, isoxadifen]
Eleusine indica
  Herbicidal efficacy % Eleusine indica: 0%
Corn (GA-tolerant); [3]
  Damage to crop plants (%) corn (GA-tolerant) (≦15-20% acceptable): 0%

— patent US20110294663A1, “Herbicidal composition for tolerant or resistant corn crops” (priority 2010, published 2011)
